In assay [1] the test system is human KP-4 pancreatic tumor cells. In words: human KP-4 pancreatic tumor xenograft model in nude mice. The format is in vivo. Conditions: female BalBc nude mice, s.c. KP-4 tumors, 5 days on and 2 days off, end of treatment.
Method: Method: Female BalBc nude mice (6-8 week old) where subcutaneously injected with human KP-4 pancreatic tumor cells and were divided into treatment groups (ten animals in one group) after the tumors were established.
Respective groups were administered orally with the 3-(1-{3-[5-(1-methyl-piperidin-4-ylmethoxy)-pyrimidin-2-yl]-benzyl}-6-oxo-1,6-dihydro-pyridazin -3-yl)-benzonitrile hydrochloride hydrate (100 mg/kg) or N-((S)-2,3-dihydroxy-propyl)-3-(2-fluoro-4-iodo-phenylamino)-isonicotinamide (50 mg/kg) for 5 days on and 2 days off in monotherapy or in combination. […] Statistical analysis has been done with one way ANOVA.
For assay [2], the system named is patient derived pancreatic tumor fragment. Put plainly: 10 patient derived pancreatic tumor models in nude mice. The format is in vivo, human. On the procedure:
Combination with MEK inhibitor N-((S)-2,3-dihydroxy-propyl)-3-(2-fluoro-4-iodo-phenylamino)-isonicotinamide in 10 patient derived pancreatic tumor models:
Method: Female NMRI nude mice (6-8 week old) where subcutaneously implanted with a patient derived pancreatic tumor fragment. Animals were divided into treatments groups (ten animals in one group) after the tumors were established. Respective groups were administered orally with the 3-(1-{3-[5-(1-methyl-piperidin-4-ylmethoxy)-pyrimidin-2-yl]-benzyl}-6-oxo -1,6-dihydro-pyridazin-3-yl)-benzonitrile hydrochloride hydrate (100 mg/kg) or N-((S)-2,3-dihydroxy-propyl)-3-(2-fluoro-4-iodo-phenylamino)-isonicotinamide (100 mg/kg, MTD) for 5 days on and 2 days off in monotherapy or in combination. At the end of treatment TC values were calculated and tumor regrowth was observed. Statistical analysis has been done with one way ANOVO. […] All treatments were well tolerated.

The structures appear in SMILES notation. Where “and” joins values, the source holds several entries; their conditions need not be identical. Equal values may be shown once. Some results are limits rather than exact numbers.

With `CN1CCC(COc2cnc(-c3cccc(Cn4nc(-c5cccc(C#N)c5)ccc4=O)c3)nc2)CC1.Cl.O` [3-(1-{3-[5-(1-methyl-piperidin-4-ylmethoxy)-pyrimidin-2-yl]-benzyl}-6-oxo-1,6-dihydro-pyridazin-3-yl)-benzonitrile hydrochloride hydrate], the TC value in assay [1] (monotherapy 100 mg/kg orally) amounted to 35%. The TC values in assay [2] (female NMRI nude mice; monotherapy 100 mg/kg orally, 5 days on and 2 days off; end of treatment; the models with anti-tumor activity; hydrochloride hydrate)) is 43% and 50%.
In the case of `O=C(NC[C@H](O)CO)c1ccncc1Nc1ccc(I)cc1F` [N-((S)-2,3-dihydroxy-propyl)-3-(2-fluoro-4-iodo-phenylamino)-isonicotinamide], in assay [1] (monotherapy 50 mg/kg orally), the TC value was determined as 42%. For the same molecule, the TC values in assay [2] (female NMRI nude mice, monotherapy 100 mg/kg (MTD) orally, 5 days on and 2 days off, end of treatment, all 10 models) is on record as less than 55%. In addition, in assay [2] (female NMRI nude mice, monotherapy 100 mg/kg orally, 5 days on and 2 days off, out of 10 models), the “models with anti-tumor activity” value was found to be 10.

(Values after US20150297594A1, “Combination of a 6-oxo-1,6-dihydro-pyridazine derivative having anti-cancer activity with a MEK inhibitor” (MERCK PATENT GMBH, priority 2012, published 2015).)
